{"source": "patent US20220095648A1", "about": "“USE OF A THRAUSTOCHYTRID BIOMASS FOR MAINTAINING GUT BARRIER FUNCTION” (priority 2019, published 2022)", "format_in_all_cases": "cell-based", "key": {"[1]": {"system": "Caco-2 cells", "test": "D-glucose total and passive uptake by Caco-2 cells exposed to DON", "settings": "DON 10 μM alone", "description": "(§1) In order to test the ability of microalgae to reduce/prevent the effect of DON on nutrient absorption through epithelial cells, Caco-2 cells were exposed to a metabolically active dose of DON, in the absence or presence of Aurantiochytrium mangrovei FCC1325 microalgae (lyophilized microalgae “ML”, or digested lyophilized microalgae “MLD”), at a dose of 1% or 5%. Two main types of nutrients were considered (i.e. glucose and amino acids—more particularly Methionine, Lysine and Threonine), and the following measurements were carried out: • For glucose (D-Glc): passive, active (regulated by the sodium-dependent SGLT-1 transporter) and total (active+passive) absorption • For amino acids (L-Methionine, L-Lysine and L-Threonine): passive, active (regulated by sodium-dependent transport) and total (active+passive) absorption\n(§2) Briefly, Caco-2 cells were cultured and seeded onto 12-well inserts, as described in Example 1, and then let to differentiate for 16-21 days post-seeding before being used, with medium changes every two days. When differentiated, Caco-2 cells were incubated or not with DON at 10 μM (apically added), in the absence or presence of 1 or 5% (v:v final dilution, apically added) of microalgae preparation (ML or MLD). Both ML and MLD powders were resuspended initially at 0.8 mg/ml in buffer (fresh culture medium of the microalgae). Caco-2 cells were incubated for 12, 24 or 48 hours before nutrient uptake was measured.\n(§3) At the end of the incubation period, inserts were washed twice with PBS++. Inserts were then washed twice with uptake buffer (Ringer Hepes buffer) with or without sodium. Uptake buffer composition was: • Ringer Hepes buffer with sodium (called “+Na+”): 137 mmol/L NaCl, 5.36 mmol/L KCl, 0.4 mmol/L Na2HPO4, 0.8 mmol/L MgCl2, 1.8 mmol/L CaCl2, 20 mmol/L N-2-hydroxyethylpiperazine-N-2-ethanesulfonic acid (HEPES), pH being adjusted to pH 7.4 with NaOH; or • Ringer Hepes buffer without sodium (called “—Na+”): 137 mmol/L Choline chloride (instead of sodium chloride), 5.36 mmol/L KCl, 0.4 mmol/L K2HPO4 (instead of Na2HPO4), 0.8 mmol/L MgCl2, 1.8 mmol/L CaCl2, 20 mmol/L N-2-hydroxyethylpiperazine-N-2-ethanesulfonic acid (HEPES), pH being adjusted to pH 7.4 with KOH.\n(§4) After an equilibration period of 15 min at 37° C., uptake assay was initiated by the addition of D-Glc, L-Lysine, L-Methionine or L-Threonine diluted in the appropriate Ringer Hepes buffer (400 μl) and added apically onto Caco-2 inserts (final concentration of 100 μM of D-Glc and 400 μM for amino-acids), the basolateral compartment being filled with 400 μl of buffer. Inserts were kept incubated at 37° C. during the uptake assay. After 15 minutes incubation, 30 μl of media were collected from apical or basolateral compartments and stored at −20° C. until nutrient quantification. Residual concentrations of D-Glc or L-amino acid present in the apical compartments were measured using enzyme-based quantification assay kits (Glucose Colorimetric/Fluorometric Assay Kit, Sigma-Aldrich).\n(§5) Uptakes were expressed as: • Total uptake: uptake measured (either measured residual apical concentration or calculated absorbed (intracellular+basolateral) concentration) in Ringer Hepes buffer with Na+corresponding to the activity of sodium-dependent and sodium-independent transporters; • Passive uptake: uptake measured in Ringer Hepes buffer without Na+corresponding to only passive/sodium-independent transporters; • Active uptake: uptake calculated by subtracting passive uptake to total uptake."}, "[2]": {"system": "sodium-dependent SGLT-1 transporter", "test": "SGLT-1 mediated (active) D-glucose uptake by Caco-2 cells exposed to DON", "settings": "DON 10 μM alone, total minus passive", "description": "as §1\nBriefly, Caco-2 cells were cultured and seeded onto 12-well inserts, as described in Example 1, and then let to differentiate for 16-21 days post-seeding before being used, with medium changes every two days. When differentiated, Caco-2 cells were incubated or not with DON at 10 μM (apically added), in the absence or presence of 1 or 5% (v:v final dilution, apically added) of microalgae preparation (ML or MLD). […] Caco-2 cells were incubated for 12, 24 or 48 hours before nutrient uptake was measured. […]\nas §4, with “Inserts were kept incubated at 37° C. during the uptake assay.” left out, “Sigma-Aldrich). […]” for “Sigma-Aldrich).”"}, "[3]": {"system": "Caco-2 cells", "test": "L-Lysine uptake by Caco-2 cells exposed to DON", "settings": "for % of inhibition by DON, Passive uptake (−Na) / % of inhibition by DON, Total uptake (+Na) / % of inhibition by DON, Active transport: L-Lysine, DON 10 μM alone; for % of inhibition by DON, Active transport: total minus passive", "description": "as §1, §2, §3, §4, §5"}, "[4]": {"system": "Caco-2 cells", "test": "L-Methionine uptake by Caco-2 cells exposed to DON", "settings": "for % of inhibition by DON, Passive uptake (−Na) / % of inhibition by DON, Total uptake (+Na) / % of inhibition by DON, Active transport: L-Methionine, DON 10 μM alone; for % of inhibition by DON, Active transport: total minus passive", "description": "as §1, §2, §3, §4, §5"}}}
{"smiles": "CC1=C[C@H]2O[C@@H]3[C@H](O)C[C@](C)([C@@]2(CO)[C@H](O)C1=O)[C@]31CO1", "note": "[DON, Deoxynivalenol]", "values": [{"measurement": "% of inhibition by DON, Passive uptake (−Na)", "setting": "[1]; 12 h", "result": 6.4, "unit": "%"}, {"measurement": "% of inhibition by DON, Total uptake (+Na)", "setting": "[1]; 12 h", "result": 9.3, "unit": "%"}, {"measurement": "% of inhibition by DON, Passive uptake (−Na)", "setting": "[1]; 24 h", "result": 22.2, "unit": "%"}, {"measurement": "% of inhibition by DON, Total uptake (+Na)", "setting": "[1]; 24 h", "result": 29.4, "unit": "%"}, {"measurement": "% of inhibition by DON, Passive uptake (−Na)", "setting": "[1]; 48 h", "result": 21.6, "unit": "%"}, {"measurement": "% of inhibition by DON, Total uptake (+Na)", "setting": "[1]; 48 h", "result": 28.8, "unit": "%"}, {"measurement": "% of inhibition by DON, SGLT-1 mediated", "setting": "[2]; 12 h", "result": 19.2, "unit": "%"}, {"measurement": "% of inhibition by DON, SGLT-1 mediated", "setting": "[2]; 24 h", "result": 52.3, "unit": "%"}, {"measurement": "% of inhibition by DON, SGLT-1 mediated", "setting": "[2]; 48 h", "result": 51.4, "unit": "%"}, {"measurement": "effect of DON on active L-Lys uptake", "setting": "[3]; 48 h incubation, DON alone", "result": "stimulated"}, {"measurement": "% of inhibition by DON, Passive uptake (−Na)", "setting": "[3]; 12 h", "result": "−6.1", "unit": "%"}, {"measurement": "% of inhibition by DON, Total uptake (+Na)", "setting": "[3]; 12 h", "result": "−5.2", "unit": "%"}, {"measurement": "% of inhibition by DON, Active transport", "setting": "[3]; 12 h", "result": 57.5, "unit": "%"}, {"measurement": "% of inhibition by DON, Passive uptake (−Na)", "setting": "[3]; 24 h", "result": "−10.1", "unit": "%"}, {"measurement": "% of inhibition by DON, Total uptake (+Na)", "setting": "[3]; 24 h", "result": "−5.2", "unit": "%"}, {"measurement": "% of inhibition by DON, Active transport", "setting": "[3]; 24 h", "result": 44.2, "unit": "%"}, {"measurement": "% of inhibition by DON, Passive uptake (−Na)", "setting": "[3]; 48 h", "result": "−6.6", "unit": "%"}, {"measurement": "% of inhibition by DON, Total uptake (+Na)", "setting": "[3]; 48 h", "result": "−9.4", "unit": "%"}, {"measurement": "% of inhibition by DON, Active transport", "setting": "[3]; 48 h", "result": "−102.3", "unit": "%"}, {"measurement": "effect of DON on L-Met active uptake", "setting": "[4]; 12 h incubation", "result": "stimulated"}, {"measurement": "effect of DON on active L-Met uptake", "setting": "[4]; 48 h incubation, DON alone", "result": "stimulated"}, {"measurement": "% of inhibition by DON, Passive uptake (−Na)", "setting": "[4]; 12 h", "result": "−2.2", "unit": "%"}, {"measurement": "% of inhibition by DON, Total uptake (+Na)", "setting": "[4]; 12 h", "result": "−9.6", "unit": "%"}, {"measurement": "% of inhibition by DON, Active transport", "setting": "[4]; 12 h", "result": "−256.0", "unit": "%"}, {"measurement": "% of inhibition by DON, Passive uptake (−Na)", "setting": "[4]; 24 h", "result": "−4.9", "unit": "%"}, {"measurement": "% of inhibition by DON, Total uptake (+Na)", "setting": "[4]; 24 h", "result": "−12.9", "unit": "%"}, {"measurement": "% of inhibition by DON, Passive uptake (−Na)", "setting": "[4]; 48 h", "result": 1.8, "unit": "%"}, {"measurement": "% of inhibition by DON, Total uptake (+Na)", "setting": "[4]; 48 h", "result": "−4.1", "unit": "%"}, {"measurement": "% of inhibition by DON, Active transport", "setting": "[4]; 48 h", "result": "−102.4", "unit": "%"}]}
